Target: recombinant human SAE enzyme (Homo sapiens (Human), UniProt Q9UBT2)
Experiment: SAE HTRF enzyme assay
Format: biochemical
Settings: for Percent Inhibition: Concentration 0.111 μM; for IC50: class symbols A/B/C
How it was run: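 This HTRF format monitors Sumo-Flag–Ubc9-GST thioester formation catalysed by 0.11 nM human SAE with 0.5 μM ATP over 105 min at 24° C. Inhibition is expressed at a single concentration or as IC50.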

Sequence of recombinant human SAE enzyme (Q9UBT2 whole entry): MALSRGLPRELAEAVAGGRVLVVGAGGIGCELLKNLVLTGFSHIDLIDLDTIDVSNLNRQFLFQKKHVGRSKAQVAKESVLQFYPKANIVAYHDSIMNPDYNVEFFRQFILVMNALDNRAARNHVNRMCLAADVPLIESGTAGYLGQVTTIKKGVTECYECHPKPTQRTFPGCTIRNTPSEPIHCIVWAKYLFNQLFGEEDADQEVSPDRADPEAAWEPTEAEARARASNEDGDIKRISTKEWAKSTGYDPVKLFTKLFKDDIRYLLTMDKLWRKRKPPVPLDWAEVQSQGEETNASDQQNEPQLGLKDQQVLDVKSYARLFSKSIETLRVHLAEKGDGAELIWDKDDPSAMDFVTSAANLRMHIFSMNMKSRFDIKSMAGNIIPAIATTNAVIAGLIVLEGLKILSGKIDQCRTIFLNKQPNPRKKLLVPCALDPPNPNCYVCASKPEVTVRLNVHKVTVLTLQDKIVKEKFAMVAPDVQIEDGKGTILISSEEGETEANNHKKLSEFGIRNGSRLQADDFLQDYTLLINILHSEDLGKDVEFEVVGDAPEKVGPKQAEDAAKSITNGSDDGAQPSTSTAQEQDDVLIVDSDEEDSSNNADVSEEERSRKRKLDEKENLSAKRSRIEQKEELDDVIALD
Sequence of recombinant human SAE enzyme (Q9UBE0 whole entry partner): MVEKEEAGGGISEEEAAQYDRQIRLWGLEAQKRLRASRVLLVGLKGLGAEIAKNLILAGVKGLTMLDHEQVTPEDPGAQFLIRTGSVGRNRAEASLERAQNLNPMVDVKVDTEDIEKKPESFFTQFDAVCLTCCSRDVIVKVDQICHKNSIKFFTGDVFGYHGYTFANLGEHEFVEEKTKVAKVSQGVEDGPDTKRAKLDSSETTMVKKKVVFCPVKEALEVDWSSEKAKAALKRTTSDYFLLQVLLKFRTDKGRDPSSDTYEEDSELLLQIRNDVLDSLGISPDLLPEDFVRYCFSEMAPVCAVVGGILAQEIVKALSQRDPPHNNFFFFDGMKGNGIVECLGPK

Row | SMILES | Percent Inhibition | IC50
1 | Cc1sc(C(=O)c2cncnc2N[C@@H]2C[C@H](COS(N)(=O)=O)[C@@H](O)[C@@H]2F)cc1[C@H]1OCCc2ccc(Cl)cc21 (mixture of isomers) [I-264, [(1R,2R,3R,4R)-4-{[5-({4-[(1S)-7-chloro-3,4-dihydro-1H-isochromen-1-yl]-5-methyl-2-thienyl}carbonyl)pyrimidin-4-yl]amino}-3-fluoro-2-hydroxycyclopentyl]methyl sulfamate and [(1R,2R,3R,4R)-4-{[5-({4-[(1R)-7-chloro-3,4-dihydro-1H-isochromen-1-yl]-5-methyl-2-thienyl}carbonyl)pyrimidin-4-yl]amino}-3-fluoro-2-hydroxycyclopentyl]methyl sulfamate] | 100 | < 10 nM
2 | CN1Cc2ccc(Cl)cc2[C@@H]1c1csc(C(=O)c2cncnc2N[C@@H]2C[C@H](COS(N)(=O)=O)[C@@H](O)C2)c1 (mixture of isomers) [I-265, [(1R,2S,4R)-4-{[5-({4-[(1R)-6-chloro-2-methyl-2,3-dihydro-1H-isoindol-1-yl]-2-thienyl}carbonyl)pyrimidin-4-yl]amino}-2-hydroxycyclopentyl]methyl sulfamate and [(1R,2S,4R)-4-{[5-({4-[(1S)-6-chloro-2-methyl-2,3-dihydro-1H-isoindol-1-yl]-2-thienyl}carbonyl)pyrimidin-4-yl]amino}-2-hydroxycyclopentyl]methyl sulfamate] | 97 | < 10 nM
3 | NS(=O)(=O)OC[C@H]1C[C@@H](Nc2ncncc2C(=O)c2cc([C@@H]3OCCc4ccc(Br)cc43)cs2)C[C@@H]1O.NS(=O)(=O)OC[C@H]1C[C@@H](Nc2ncncc2C(=O)c2cc([C@H]3OCCc4ccc(Br)cc43)cs2)C[C@@H]1O (mixture of isomers) [I-268, [(1R,2S,4R)-4-{[5-({4-[(1R)-7-bromo-3,4-dihydro-1H-isochromen-1-yl]-2-thienyl}carbonyl)pyrimidin-4-yl]amino}-2-hydroxycyclopentyl]methyl sulfamate and [(1R,2S,4R)-4-{[5-({4-[(1S)-7-bromo-3,4-dihydro-1H-isochromen-1-yl]-2-thienyl}carbonyl)pyrimidin-4-yl]amino}-2-hydroxycyclopentyl]methyl sulfamate] | 100 | < 10 nM
4 | Cc1sc(C(=O)c2cncnc2N[C@@H]2C[C@H](COS(N)(=O)=O)[C@@H](O)C2)cc1[C@@H]1OCCc2ccsc21 (mixture of isomers) [I-269, [(1R,2S,4R)-4-{[5-({4-[(7S)-4,7-dihydro-5H-thieno[2,3-c]pyran-7-yl]-5-methyl-2-thienyl}carbonyl)pyrimidin-4-yl]amino}-2-hydroxycyclopentyl]methyl sulfamate and [(1R,2S,4R)-4-{[5-({4-[(7R)-4,7-dihydro-5H-thieno[2,3-c]pyran-7-yl]-5-methyl-2-thienyl}carbonyl)pyrimidin-4-yl]amino}-2-hydroxycyclopentyl]methyl sulfamate] | 99 | < 10 nM
5 | Cc1oc(C(=O)c2cncnc2N[C@@H]2C[C@H](COS(N)(=O)=O)[C@@H](O)C2)cc1[C@@H]1OCCc2ccc(Cl)cc21 (mixture of isomers) [I-270, {(1R,2S,4R)-4-[(5-{4-[(1R)-7-chloro-3,4-dihydro-1H-isochromen-1-yl]-5-methyl-2-furoyl}pyrimidin-4-yl)amino]-2-hydroxycyclopentyl}methyl sulfamate and {(1R,2S,4R)-4-[(5-{4-[(1S)-7-chloro-3,4-dihydro-1H-isochromen-1-yl]-5-methyl-2-furoyl}pyrimidin-4-yl)amino]-2-hydroxycyclopentyl}methyl sulfamate] | 99 | < 10 nM
6 | NS(=O)(=O)OC[C@H]1C[C@@H](Nc2ncncc2C(=O)c2cc([C@@H]3NCCc4ccc(Cl)cc43)cs2)C[C@@H]1O (mixture of isomers) [I-274, [(1R,2S,4R)-4-{[5-({4-[(1R)-7-chloro-1,2,3,4-tetrahydroisoquinolin-1-yl]-2-thienyl}carbonyl)pyrimidin-4-yl]amino}-2-hydroxycyclopentyl]methyl sulfamate and [(1R,2S,4R)-4-{[5-({4-[(1S)-7-chloro-1,2,3,4-tetrahydroisoquinolin-1-yl]-2-thienyl}carbonyl)pyrimidin-4-yl]amino}-2-hydroxycyclopentyl]methyl sulfamate] | 100 | < 10 nM
7 | Cc1sc(C(=O)c2cncnc2N[C@@H]2C[C@H](COS(N)(=O)=O)[C@@H](O)C2)cc1[C@@H]1OCCc2sccc21 (mixture of isomers) [I-275, [(1R,2S,4R)-4-{[5-({4-[(4S)-6,7-dihydro-4H-thieno[3,2-c]pyran-4-yl]-5-methyl-2-thienyl}carbonyl)pyrimidin-4-yl]amino}-2-hydroxycyclopentyl]methyl sulfamate and [(1R,2S,4R)-4-{[5-({4-[(4R)-6,7-dihydro-4H-thieno[3,2-c]pyran-4-yl]-5-methyl-2-thienyl}carbonyl)pyrimidin-4-yl]amino}-2-hydroxycyclopentyl]methyl sulfamate] | 97 | < 10 nM
8 | NS(=O)(=O)OCC1CC(Nc2ncncc2C(=O)c2cc(C3OCCc4ccc(Cl)nc43)c(Cl)s2)CC1O (mixture of isomers) [I-276, [(1R,2S,4R)-4-{[5-({5-chloro-4-[(8S)-2-chloro-5,8-dihydro-6H-pyrano[3,4-b]pyridin-8-yl]-2-thienyl}carbonyl)pyrimidin-4-yl]amino}-2-hydroxycyclopentyl]methyl sulfamate and [(1R,2S,4R)-4-{[5-({5-chloro-4-[(8R)-2-chloro-5,8-dihydro-6H-pyrano[3,4-b]pyridin-8-yl]-2-thienyl}carbonyl)pyrimidin-4-yl]amino}-2-hydroxycyclopentyl]methyl sulfamate] | 98 | < 10 nM
9 | Cc1sc(C(=O)c2cncnc2N[C@@H]2C[C@H](COS(N)(=O)=O)[C@@H](O)C2)cc1[C@@H]1OCCc2ccc(C3CC3)cc21 (mixture of isomers) [I-277, [(1R,2S,4R)-4-{[5-({4-[(1R)-7-cyclopropyl-3,4-dihydro-1H-isochromen-1-yl]-5-methyl-2-thienyl}carbonyl)pyrimidin-4-yl]amino}-2-hydroxycyclopentyl]methyl sulfamate and [(1R,2S,4R)-4-{[5-({4-[(1S)-7-cyclopropyl-3,4-dihydro-1H-isochromen-1-yl]-5-methyl-2-thienyl}carbonyl)pyrimidin-4-yl]amino}-2-hydroxycyclopentyl]methyl sulfamate] | 99 | < 10 nM
10 | NS(=O)(=O)OC[C@H]1C[C@@H](Nc2ncncc2C(=O)c2cc([C@@H]3SCCc4ccc(Cl)cc43)cs2)[C@H](O)[C@@H]1O (mixture of isomers) [I-278, [(1R,2R,3S,4R)-4-{[5-({4-[(1R)-7-chloro-3,4-dihydro-1H-isothiochromen-1-yl]-2-thienyl}carbonyl)pyrimidin-4-yl]amino}-2,3-dihydroxycyclopentyl]methyl sulfamate and [(1R,2R,3S,4R)-4-{[5-({4-[(1S)-7-chloro-3,4-dihydro-1H-isothiochromen-1-yl]-2-thienyl}carbonyl)pyrimidin-4-yl]amino}-2,3-dihydroxycyclopentyl]methyl sulfamate] | 98 | < 10 nM

Reference: patent US10780090B2, “Heteroaryl compounds useful as inhibitors of SUMO activating enzyme” (Millennium Pharmaceuticals, Inc., priority 2014, dated 2020)
